≈ marks a conversion by molar mass, not a printed value. Entries after “also recorded” stand apart in the source; their conditions may differ. Read-outs that look alike come from different tables or passages of the source.
Tests used:
E. faecium NCTC 7171 = assay: MIC determination; format: cell-based, Enterococcus faecium; conditions: for MIC: Enterococcus faecium
S. aureus ATCC 29213 = assay: MIC determination; format: cell-based, Staphylococcus aureus; conditions: for antibacterial activity in words (SAR, ring A derivatives): S. aureus ATCC 29213, compounds of Schemes 3-4; for S. aureus ATCC 29213 MIC: Table 3.1, compounds of Schemes 2-4
[1] = NCTC7171, Table 3.1, compounds of Schemes 2-4, read-out: E. faecium NCTC 7171 MIC
[2] = Staphylococcus aureus, ATCC29213, Table 3.1 and SAR text, compounds of Schemes 2-4, read-out: S. aureus ATCC 29213 MIC
[3] = NCTC7171, read-out: E. faecium NCTC 7171 MIC
[4] = Staphylococcus aureus, ATCC29213, read-out: S. aureus ATCC 29213 MIC
[5] = S. aureus ATCC29213, second numbering, compounds of Scheme 6
[6] = Table 3.1, compounds of Schemes 2-4

MIC (E. faecium NCTC 7171; [1]) [µg/mL] | MIC (S. aureus ATCC 29213; [2]) [µg/mL] | SMILES | also measured
16 (≈ 41.8 µM) | 1 (≈ 2.61 µM) | Brc1c[nH]nc1-c1nc(-c2ccc(Oc3ccccc3)cc2)no1 [61a] | –
32 (≈ 74.4 µM) | 1 (≈ 2.32 µM) | Ic1c[nH]nc1-c1nc(-c2ccc(Oc3ccccc3)cc2)no1 [62a] | –
1 (≈ 3.03 µM) | 1 (≈ 3.03 µM) | Oc1ccc(-c2nc(-c3ccc(Oc4ccccc4)cc3)no2)cc1 [Compound 57a] | –
1 (≈ 2.87 µM) | 1 (≈ 2.87 µM) | Oc1ccc(-c2nc(-c3ccc(Oc4ccc(F)cc4)cc3)no2)cc1 [Compound 57c] | –
– | – | Nc1ccc(-c2nc(-c3ccc(Oc4ccccc4)cc3)no2)cc1 [Compound 58a] | MIC (E. faecium NCTC 7171; [3]): 2 µg/mL (≈ 6.07 µM); MIC (S. aureus ATCC 29213; [4]): 4 µg/mL (≈ 12.1 µM)
2 (≈ 5.03 µM) | 1 (≈ 2.52 µM) | Nc1ccc(-c2nc(-c3ccc(Oc4ccc(C(F)(F)F)cc4)cc3)no2)cc1 [Compound 58b] | –
> 128 | > 128 | Nc1ccc(-c2nc(-c3ccc(Oc4ccc(F)cc4)cc3)no2)cc1 [Compound 58c] | antibacterial activity in words (SAR, ring A derivatives) (S. aureus ATCC 29213): no antibiotic activity; also recorded: inactive
– | – | Clc1c[nH]nc1-c1nc(-c2ccc(Oc3ccccc3)cc2)no1 [Compound 60a] | MIC (E. faecium NCTC 7171; [3]): > 128 µg/mL; MIC (S. aureus ATCC 29213; [5]): 8 µg/mL (≈ 23.6 µM); MIC (S. aureus ATCC 29213; [4]): 1 µg/mL (≈ 2.95 µM)
> 128 | 1 (≈ 2.22 µM) | FC(F)(F)c1ccc(Oc2ccc(-c3noc(-c4n[nH]cc4Br)n3)cc2)cc1 [Compound 61b] | –
32 (≈ 64.2 µM) | 2 (≈ 4.01 µM) | FC(F)(F)c1ccc(Oc2ccc(-c3noc(-c4n[nH]cc4I)n3)cc2)cc1 [Compound 62b] | –
2 (≈ 4.79 µM) | 2 (≈ 4.79 µM) | O=[N+]([O-])c1c[nH]nc1-c1nc(-c2ccc(Oc3ccc(C(F)(F)F)cc3)cc2)no1 [Compound 63b, 5-(4-Nitro-1H-pyrazole-3-yl)-3-(4-(4-(trifluoromethyl)phenoxy)phenyl)-1,2,4-oxadiazole] | –
4 (≈ 10.9 µM) | 1 (≈ 2.72 µM) | O=[N+]([O-])c1c[nH]nc1-c1nc(-c2ccc(Oc3ccc(F)cc3)cc2)no1 [Compound 63c] | –
– | – | Nc1c[nH]nc1-c1nc(-c2ccc(Oc3ccccc3)cc2)no1 [Compound 64a] | MIC (E. faecium NCTC 7171; [3]): 32 µg/mL (≈ 100 µM); antibacterial activity in words (SAR, C/D ring derivatives) (S. aureus ATCC 29213; [5]): retained activity; MIC (S. aureus ATCC 29213; [4]): 16 µg/mL (≈ 50.1 µM)
16 (≈ 41.3 µM) | 4 (≈ 10.3 µM) | Nc1c[nH]nc1-c1nc(-c2ccc(Oc3ccc(C(F)(F)F)cc3)cc2)no1 [Compound 64b, 3-(3-(4-(4-(Trifluoromethyl)phenoxy)phenyl)-1,2,4-oxadiazol-5-yl)-1H-pyrazol-4-amine] | –
32 (≈ 94.9 µM) | 16 (≈ 47.4 µM) | Nc1c[nH]nc1-c1nc(-c2ccc(Oc3ccc(F)cc3)cc2)no1 [Compound 64c] | –
– | – | CC(C)Nc1c[nH]nc1-c1nc(-c2ccc(Oc3ccccc3)cc2)no1 [Compound 65a] | MIC (E. faecium NCTC 7171; [3]): > 128 µg/mL; antibacterial activity in words (SAR, C/D ring derivatives) (S. aureus ATCC 29213; [5]): did not alter the activity; MIC (S. aureus ATCC 29213; [4]): 0.5 µg/mL (≈ 1.38 µM)
> 128 | 2 (≈ 5.03 µM) | N#Cc1c[nH]nc1-c1nc(-c2ccc(Oc3ccc(C(F)(F)F)cc3)cc2)no1 [Compound 67b] | antibacterial activity in words (SAR, ring A derivatives) (S. aureus ATCC 29213): good activity
128 (≈ 309 µM) | 2 (≈ 4.83 µM) | Oc1ccc(-c2nc(-c3ccc(Oc4ccc(C(F)(F)F)cc4)cc3)no2)cc1O [Compound 69b] | –
8 (≈ 22 µM) | 4 (≈ 11 µM) | Oc1ccc(-c2nc(-c3ccc(Oc4ccc(F)cc4)cc3)no2)cc1O [Compound 69c] | –
4 (≈ 11.5 µM) | 4 (≈ 11.5 µM) | Oc1ccc(-c2nc(-c3ccc(Oc4ccccc4)cc3)no2)cc1F [Compound 70a] | –

MIC (E. faecium NCTC 7171; [1]) [µg/mL] | MIC (S. aureus ATCC 29213; [2]) [µg/mL] | SMILES | also measured
– | – | Oc1ccc(-c2nc(-c3ccc(Oc4ccc(C(F)(F)F)cc4)cc3)no2)cc1F [Compound 70b] | E. faecium NCTC 7171 MIC (E. faecium NCTC 7171; [6]): 2 µg/mL; S. aureus ATCC 29213 MIC (S. aureus ATCC 29213): 2 µg/mL
2 (≈ 5.46 µM) | 2 (≈ 5.46 µM) | Oc1ccc(-c2nc(-c3ccc(Oc4ccc(F)cc4)cc3)no2)cc1F [Compound 70c] | –
– | – | Oc1c(F)cc(-c2nc(-c3ccc(Oc4ccc(C(F)(F)F)cc4)cc3)no2)cc1F [Compound 71b] | E. faecium NCTC 7171 MIC (E. faecium NCTC 7171; [6]): 2 µg/mL; S. aureus ATCC 29213 MIC (S. aureus ATCC 29213): 2 µg/mL
4 (≈ 10.4 µM) | 8 (≈ 20.8 µM) | Oc1c(F)cc(-c2nc(-c3ccc(Oc4ccc(F)cc4)cc3)no2)cc1F [Compound 71c] | –
– | – | Nc1ccc(-c2nc(-c3ccc(Oc4ccccc4)cc3)no2)cc1F [Compound 72a] | MIC (E. faecium NCTC 7171; [3]): > 32 µg/mL; antibacterial activity in words (SAR, C/D ring derivatives) (S. aureus ATCC 29213; [5]): inactive; MIC (S. aureus ATCC 29213; [4]): > 128 µg/mL
2 (≈ 4.82 µM) | 2 (≈ 4.82 µM) | Nc1ccc(-c2nc(-c3ccc(Oc4ccc(C(F)(F)F)cc4)cc3)no2)cc1F [Compound 72b] | –
8 (≈ 23.2 µM) | – | Oc1ccc(Cc2nc(-c3ccc(Oc4ccccc4)cc3)no2)cc1 [Compound 74a] | –
2 (≈ 5.66 µM) | 2 (≈ 5.66 µM) | c1ccc(Oc2ccc(-c3noc(-c4ccc5[nH]ccc5c4)n3)cc2)cc1 [Compound 75a] | –
2 (≈ 5.39 µM) | 2 (≈ 5.39 µM) | Fc1ccc(Oc2ccc(-c3noc(-c4ccc5[nH]ccc5c4)n3)cc2)cc1 [Compound 75c] | –
128 (≈ 397 µM) | > 128 | Fc1ccc(Oc2ccc(-c3noc(-c4cnc[nH]4)n3)cc2)cc1 [Compound 76c] | antibacterial activity in words (SAR, ring A derivatives) (S. aureus ATCC 29213): no activity
4 (≈ 9 µM) | 8 (≈ 18 µM) | O=[N+]([O-])c1cc(-c2nc(-c3ccc(Oc4ccc(C(F)(F)F)cc4)cc3)no2)cnc1O [Compound 77b] | –
4 (≈ 10.1 µM) | 8 (≈ 20.3 µM) | O=[N+]([O-])c1cc(-c2nc(-c3ccc(Oc4ccc(F)cc4)cc3)no2)cnc1O [Compound 77c] | –
64 (≈ 154 µM) | 8 (≈ 19.2 µM) | O=[N+]([O-])c1c[nH]c(-c2nc(-c3ccc(Oc4ccc(C(F)(F)F)cc4)cc3)no2)c1 [Compound 78b] | antibacterial activity in words (SAR, ring A derivatives) (S. aureus ATCC 29213): retained good activity
128 (≈ 349 µM) | > 128 | O=[N+]([O-])c1c[nH]c(-c2nc(-c3ccc(Oc4ccc(F)cc4)cc3)no2)c1 [Compound 78c] | antibacterial activity in words (SAR, ring A derivatives) (S. aureus ATCC 29213): No activity
> 128 | 8 (≈ 20.7 µM) | C=CCOc1cc(N)ncc1-c1nc(-c2ccc(Oc3ccccc3)cc2)no1 [Compound 79a] | –
– | > 1000 | Fc1ccc(-c2nc(-c3ccc(Oc4ccccc4)cc3)no2)cc1 [Compound 80a] | –
– | > 1200 | Fc1ccc(-c2nc(-c3ccc(Oc4ccc(C(F)(F)F)cc4)cc3)no2)cc1 [Compound 80b] | –
– | > 1000 | FC(F)(F)c1ccc(Oc2ccc(-c3noc(-c4ccc(Br)cc4)n3)cc2)cc1 [Compound 81b] | –
> 128 | > 128 | Fc1ccc(Oc2ccc(-c3noc(-c4ccc(Br)cc4)n3)cc2)cc1 [Compound 81c] | –
– | 256 (≈ 583 µM) | CC(=O)Nc1ccc(-c2nc(-c3ccc(Oc4ccc(C(F)(F)F)cc4)cc3)no2)cc1 [Compound 83b] | –

MIC (E. faecium NCTC 7171; [1]) [µg/mL] | MIC (S. aureus ATCC 29213; [2]) [µg/mL] | SMILES | also measured
– | – | CCOP(=O)(OCC)c1ccc(-c2nc(-c3ccc(Oc4ccc(F)cc4)cc3)no2)cc1 [Compound 85c] | MIC (E. faecium NCTC 7171; [3]): > 128 µg/mL; MIC (S. aureus ATCC 29213; [4]): > 128 µg/mL
32 (≈ 67.3 µM) | > 128 | CS(=O)(=O)Nc1ccc(-c2nc(-c3ccc(Oc4ccc(C(F)(F)F)cc4)cc3)no2)cc1 [Compound 86b] | –
128 (≈ 277 µM) | > 128 | NS(=O)(=O)c1ccc(-c2nc(-c3ccc(Oc4ccc(C(F)(F)F)cc4)cc3)no2)cc1 [Compound 87b] | –
> 128 | > 128 | NS(=O)(=O)c1ccc(-c2nc(-c3ccc(Oc4ccc(F)cc4)cc3)no2)cc1 [Compound 87c] | –
64 (≈ 171 µM) | > 128 | NC(=O)c1ccc(-c2nc(-c3ccc(Oc4ccc(F)cc4)cc3)no2)cc1 [Compound 88c] | antibacterial activity in words (SAR, ring A derivatives) (S. aureus ATCC 29213): failed to show significant activity
128 (≈ 340 µM) | > 128 | O=C(O)c1ccc(-c2nc(-c3ccc(Oc4ccc(F)cc4)cc3)no2)cc1 [Compound 89c] | antibacterial activity in words (SAR, ring A derivatives) (S. aureus ATCC 29213): failed to show significant activity
> 128 | > 128 | COC(=O)c1ccc(-c2nc(-c3ccc(Oc4ccc(F)cc4)cc3)no2)cc1 [Compound 90c] | antibacterial activity in words (SAR, ring A derivatives) (S. aureus ATCC 29213): failed to show significant activity
> 128 | > 128 | O=[N+]([O-])c1cc(-c2nc(-c3ccc(Oc4ccc(F)cc4)cc3)no2)ccc1O [Compound 91c] | antibacterial activity in words (SAR, ring A derivatives) (S. aureus ATCC 29213): failed to show significant activity
128 (≈ 352 µM) | > 128 | Nc1cc(-c2nc(-c3ccc(Oc4ccc(F)cc4)cc3)no2)ccc1O [Compound 92c] | antibacterial activity in words (SAR, ring A derivatives) (S. aureus ATCC 29213): failed to show significant activity
> 128 | > 128 | COc1cc(-c2nc(-c3ccc(Oc4ccccc4)cc3)no2)ccc1N [Compound 94a] | –
> 128 | > 128 | Oc1cccc(-c2nc(-c3ccc(Oc4ccccc4)cc3)no2)c1 [Compound 95a] | antibacterial activity in words (SAR, ring A derivatives) (S. aureus ATCC 29213): failed to show significant activity
– | – | Cl.c1ccc(Oc2ccc(-c3noc(C4CCNCC4)n3)cc2)cc1 [Compound 128a] | E. faecium NCTC 7171 MIC (E. faecium NCTC 7171; [6]): 16 µg/mL
– | – | Cl.c1ccc(Oc2ccc(-c3noc(C4CCCN4)n3)cc2)cc1 (stereo not shown) [Compound 132a] | E. faecium NCTC 7171 MIC (E. faecium NCTC 7171; [6]): 64 µg/mL
> 128 | – | O=C1C[C@H](c2nc(-c3ccc(Oc4ccc(C(F)(F)F)cc4)cc3)no2)CN1 [Compound 133b] | –
> 128 | – | O=C1C[C@@H](c2nc(-c3ccc(Oc4ccc(C(F)(F)F)cc4)cc3)no2)CN1 [Compound 134b] | –
> 128 | – | O=c1cc(-c2nc(-c3ccc(Oc4ccc(C(F)(F)F)cc4)cc3)no2)[nH]c(=O)[nH]1 [Compound 135b] | –
– | – | Cl.NC(Cc1ccccc1)c1nc(-c2ccc(Oc3ccccc3)cc2)no1 (stereo not shown) [Compound 136a] | E. faecium NCTC 7171 MIC (E. faecium NCTC 7171; [6]): >128 µg/mL
– | – | Oc1ccc(-c2nc(-c3ccc(OC4CCCC4)cc3)no2)cc1 [DR-03-235] | MIC S. aureus ATCC 29213 MH (S. aureus ATCC 29213; Mueller Hinton broth, Table 2.2, in µg/mL): 0.5-1

SMILES | MIC (E. faecium NCTC 7171; [1]) [µg/mL] | MIC (S. aureus ATCC 29213; [2]) [µg/mL] | also measured
Oc1c(F)cc(-c2nc(-c3ccc(Oc4ccc(C(F)(F)F)cc4)cc3)no2)cc1F [Compound 73b] | 4 (≈ 9.21 µM) | 4 (≈ 9.21 µM) | –
